Measured values: patent US20210221822A1, “TRICYCLIC DERIVATIVES INHIBITOR, PREPARATION METHOD, AND APPLICATIONS THEREOF” (Jiangsu Hansoh Pharmaceutical Group Co., Ltd., priority 2018, published 2021)

Legend:
[1] = test system: PI3Kα mutant cancer cells HGC-27 (E542K); assay: Cell Titer-Glo proliferation inhibition, HGC-27; format: cell-based; settings: Homo sapiens, 48 to 96 hours
Method: (§1) Experimental method: The proliferation inhibitory effect of the compounds of the examples on PI3Kα mutant cancer cell lines HCC1954, HGC-27 and MKN1 was determined by Cell Titer-Glo method. The cell lines were cultured in RPMI 1640 medium (Gibco #22400089) containing 10% FBS (Gibco #10091148) and 1% P/S (Hyclone #SV30010) at 37° C. and 5% CO2. Before the experiment, the cells were collected and counted, and then the cell density was adjusted. The cells were inoculated in a white 96-well plate (Corning #3610) at a density of 1000 to 10000 cells/well, and incubated in an incubator at 37° C., 5% CO2 overnight. The compound solution of different concentrations was added, and corresponding vehicle control was set at the same time. The cell plate was further incubated in an incubator at 37° C., 5% CO2 for 48 to 96 hours. The cell plate and its content were equilibrated to room temperature. 20 to 100 μL of Cell Titer-Glo solution (Promega #G7573) was added to each well, and the plate was shaked well and incubated at room temperature in the dark for 5 to 30 minutes. The chemiluminescence value was measured by the BioTek SynergyH1 microplate reader.
(§2) The percentage inhibition data of the well treated by the compounds of the examples was calculated through the vehicle control well on the plate {% inhibition rate=100−(test compound value/vehicle control value)×100}. The IC50 value was calculated by fitting the data of different concentrations and corresponding percentage inhibition rates to a four-parameter nonlinear logic formula with GraphPad prism.

[2] = target: T1, PI3Kδ (Homo sapiens, UniProt O00329); assay: ADP-Glo lipid kinase assay, PI3Kδ kinase activity; format: biochemical; settings: 0.1 nM enzyme, 90 min, 100 μM ATP
T1 construct: purchased Carna 11-103
Procedure, shortened: (§3)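 ADP-Glo luminescence measured ADP formed by PI3Kα, β, γ or δ (0.1-2 nM working solution) with PIP2:3PS (50 μM added solution) and ATP in HEPES/MgCl2/NaCl/BSA buffer, 90 to 120 min at room temperature. % inhibition was set against DMSO and no-kinase controls, and IC50 came from a four-parameter fit.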

[3] = test system: PI3Kα mutant cancer cells MKN1 (E545K); assay: Cell Titer-Glo proliferation inhibition, MKN1; format: cell-based; settings: Homo sapiens, MKN-1, 48 to 96 hours
Method: as §1, §2

[4] = target: T2, PI3Kβ (Homo sapiens, UniProt P42338); assay: ADP-Glo lipid kinase assay, PI3Kβ kinase activity; format: biochemical; settings: 0.4 nM enzyme, 90 min, 100 μM ATP
T2 construct: purchased Carna 11-102
Procedure, shortened: as §3

[5] = target: T3, PI3Kα (Homo sapiens, UniProt P42336); assay: ADP-Glo lipid kinase assay, PI3Kα kinase activity; format: biochemical
T3 construct: purchased Promega V1721
Procedure, shortened: as §3

[6] = target: T4, PI3Kγ (Homo sapiens, UniProt P48736); assay: ADP-Glo lipid kinase assay, PI3Kγ kinase activity; format: biochemical; settings: 0.4 nM enzyme, 120 min, 50 μM ATP
T4 construct: purchased Thermofisher PV4786
Procedure, shortened: as §3

[7] = test system: PI3Kα mutant cancer cells HCC1954 (H1047R); assay: Cell Titer-Glo proliferation inhibition, HCC1954; format: cell-based; settings: Homo sapiens, 48 to 96 hours
Method: as §1, §2

T3 sequence (P42336 whole entry): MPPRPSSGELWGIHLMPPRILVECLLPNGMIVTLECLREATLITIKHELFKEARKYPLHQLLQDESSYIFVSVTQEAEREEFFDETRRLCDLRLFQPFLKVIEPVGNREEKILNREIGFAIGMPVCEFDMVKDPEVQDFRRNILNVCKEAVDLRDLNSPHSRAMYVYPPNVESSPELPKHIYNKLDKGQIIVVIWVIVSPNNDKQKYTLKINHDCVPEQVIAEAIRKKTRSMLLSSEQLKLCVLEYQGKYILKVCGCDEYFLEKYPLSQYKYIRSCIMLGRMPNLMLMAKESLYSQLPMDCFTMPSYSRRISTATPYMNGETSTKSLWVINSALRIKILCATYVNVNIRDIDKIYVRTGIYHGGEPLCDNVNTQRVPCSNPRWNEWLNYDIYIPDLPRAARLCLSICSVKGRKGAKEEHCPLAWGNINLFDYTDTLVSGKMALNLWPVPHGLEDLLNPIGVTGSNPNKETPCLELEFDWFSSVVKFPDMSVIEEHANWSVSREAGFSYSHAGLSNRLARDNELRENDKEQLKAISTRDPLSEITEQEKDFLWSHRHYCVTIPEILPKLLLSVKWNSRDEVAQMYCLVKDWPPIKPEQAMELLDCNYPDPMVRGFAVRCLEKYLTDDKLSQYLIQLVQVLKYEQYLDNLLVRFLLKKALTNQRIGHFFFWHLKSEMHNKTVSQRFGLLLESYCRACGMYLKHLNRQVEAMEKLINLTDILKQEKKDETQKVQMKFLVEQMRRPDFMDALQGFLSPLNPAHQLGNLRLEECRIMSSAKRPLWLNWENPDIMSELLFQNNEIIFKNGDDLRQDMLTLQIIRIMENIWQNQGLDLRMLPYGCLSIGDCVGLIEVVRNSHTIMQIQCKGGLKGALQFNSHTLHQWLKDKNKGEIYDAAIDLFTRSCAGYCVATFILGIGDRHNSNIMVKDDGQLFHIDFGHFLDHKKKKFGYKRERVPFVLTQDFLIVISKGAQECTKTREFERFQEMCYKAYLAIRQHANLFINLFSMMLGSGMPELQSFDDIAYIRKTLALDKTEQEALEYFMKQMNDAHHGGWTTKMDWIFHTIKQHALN
T3 sequence (P27986 whole entry partner): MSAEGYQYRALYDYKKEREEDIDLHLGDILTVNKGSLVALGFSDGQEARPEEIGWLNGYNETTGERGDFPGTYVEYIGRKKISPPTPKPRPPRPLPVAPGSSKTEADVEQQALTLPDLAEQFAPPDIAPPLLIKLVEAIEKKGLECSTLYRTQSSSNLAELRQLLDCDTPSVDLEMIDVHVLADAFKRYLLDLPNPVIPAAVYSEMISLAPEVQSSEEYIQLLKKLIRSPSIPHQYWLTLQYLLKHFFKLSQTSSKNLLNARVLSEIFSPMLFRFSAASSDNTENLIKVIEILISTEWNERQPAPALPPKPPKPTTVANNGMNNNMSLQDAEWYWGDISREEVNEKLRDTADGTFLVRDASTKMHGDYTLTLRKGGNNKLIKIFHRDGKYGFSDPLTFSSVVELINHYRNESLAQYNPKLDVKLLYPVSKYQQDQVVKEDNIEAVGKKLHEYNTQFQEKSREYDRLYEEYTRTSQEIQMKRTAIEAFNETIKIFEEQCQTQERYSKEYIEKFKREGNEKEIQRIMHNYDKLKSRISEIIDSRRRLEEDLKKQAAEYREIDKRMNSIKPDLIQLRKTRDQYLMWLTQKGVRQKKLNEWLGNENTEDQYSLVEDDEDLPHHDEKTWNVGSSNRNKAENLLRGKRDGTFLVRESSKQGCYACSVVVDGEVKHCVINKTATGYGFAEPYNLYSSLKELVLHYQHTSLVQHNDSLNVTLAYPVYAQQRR
T2 sequence (P42338 whole entry): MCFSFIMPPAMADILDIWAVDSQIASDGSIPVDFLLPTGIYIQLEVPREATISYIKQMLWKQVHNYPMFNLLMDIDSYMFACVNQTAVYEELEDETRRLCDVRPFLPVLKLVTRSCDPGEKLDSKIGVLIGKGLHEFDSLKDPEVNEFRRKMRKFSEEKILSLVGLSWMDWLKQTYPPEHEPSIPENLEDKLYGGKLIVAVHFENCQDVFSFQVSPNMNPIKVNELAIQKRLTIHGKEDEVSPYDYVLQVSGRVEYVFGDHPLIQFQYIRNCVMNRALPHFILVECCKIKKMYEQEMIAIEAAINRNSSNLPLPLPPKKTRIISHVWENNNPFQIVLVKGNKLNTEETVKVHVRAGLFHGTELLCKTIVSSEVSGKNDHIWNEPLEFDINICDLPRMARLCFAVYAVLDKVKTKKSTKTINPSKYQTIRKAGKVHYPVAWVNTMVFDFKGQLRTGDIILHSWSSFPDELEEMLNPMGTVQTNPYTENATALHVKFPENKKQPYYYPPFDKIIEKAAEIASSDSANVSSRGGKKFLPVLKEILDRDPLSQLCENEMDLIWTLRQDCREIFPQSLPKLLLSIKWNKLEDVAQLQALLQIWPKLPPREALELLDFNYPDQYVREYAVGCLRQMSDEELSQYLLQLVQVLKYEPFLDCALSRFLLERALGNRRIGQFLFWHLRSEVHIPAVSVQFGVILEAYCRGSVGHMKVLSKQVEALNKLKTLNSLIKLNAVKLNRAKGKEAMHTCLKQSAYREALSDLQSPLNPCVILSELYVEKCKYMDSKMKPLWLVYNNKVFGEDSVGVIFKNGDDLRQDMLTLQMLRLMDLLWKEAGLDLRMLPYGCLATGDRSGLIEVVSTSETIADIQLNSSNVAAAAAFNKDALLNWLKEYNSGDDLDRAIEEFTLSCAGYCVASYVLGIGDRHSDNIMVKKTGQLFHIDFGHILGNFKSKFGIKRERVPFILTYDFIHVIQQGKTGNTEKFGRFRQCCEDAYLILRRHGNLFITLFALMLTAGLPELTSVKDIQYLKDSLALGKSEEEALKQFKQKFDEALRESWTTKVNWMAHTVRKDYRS
T2 sequence (P27986 whole entry partner): as the sequence (P27986 whole entry partner) above
T1 sequence (O00329 whole entry): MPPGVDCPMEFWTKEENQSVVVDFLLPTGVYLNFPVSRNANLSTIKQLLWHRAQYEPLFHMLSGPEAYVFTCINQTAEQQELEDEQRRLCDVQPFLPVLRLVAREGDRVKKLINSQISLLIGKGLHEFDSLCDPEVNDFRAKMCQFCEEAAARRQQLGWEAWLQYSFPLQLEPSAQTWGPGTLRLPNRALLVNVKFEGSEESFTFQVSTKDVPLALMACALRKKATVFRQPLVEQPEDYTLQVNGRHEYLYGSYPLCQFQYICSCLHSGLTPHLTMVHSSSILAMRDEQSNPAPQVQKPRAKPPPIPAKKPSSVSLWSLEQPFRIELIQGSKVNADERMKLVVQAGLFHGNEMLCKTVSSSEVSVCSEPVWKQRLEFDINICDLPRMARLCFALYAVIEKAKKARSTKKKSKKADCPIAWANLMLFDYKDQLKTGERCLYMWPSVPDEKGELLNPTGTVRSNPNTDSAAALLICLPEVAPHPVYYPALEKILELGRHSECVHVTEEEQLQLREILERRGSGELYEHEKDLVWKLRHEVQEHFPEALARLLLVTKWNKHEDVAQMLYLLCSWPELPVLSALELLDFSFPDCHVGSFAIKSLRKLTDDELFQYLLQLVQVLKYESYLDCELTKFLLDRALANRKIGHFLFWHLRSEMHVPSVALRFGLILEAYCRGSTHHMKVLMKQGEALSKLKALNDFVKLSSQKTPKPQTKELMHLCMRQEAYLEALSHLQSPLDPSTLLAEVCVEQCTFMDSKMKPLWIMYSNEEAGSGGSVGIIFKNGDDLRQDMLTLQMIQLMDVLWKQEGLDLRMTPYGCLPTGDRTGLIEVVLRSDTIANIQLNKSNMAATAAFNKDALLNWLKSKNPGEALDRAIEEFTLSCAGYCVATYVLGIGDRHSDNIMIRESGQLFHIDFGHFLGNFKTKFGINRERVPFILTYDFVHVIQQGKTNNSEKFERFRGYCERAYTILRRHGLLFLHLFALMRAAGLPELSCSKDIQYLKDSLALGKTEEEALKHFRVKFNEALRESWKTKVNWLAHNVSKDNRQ
T1 sequence (P27986 whole entry partner): as the sequence (P27986 whole entry partner) above
T4 sequence (P48736 whole entry): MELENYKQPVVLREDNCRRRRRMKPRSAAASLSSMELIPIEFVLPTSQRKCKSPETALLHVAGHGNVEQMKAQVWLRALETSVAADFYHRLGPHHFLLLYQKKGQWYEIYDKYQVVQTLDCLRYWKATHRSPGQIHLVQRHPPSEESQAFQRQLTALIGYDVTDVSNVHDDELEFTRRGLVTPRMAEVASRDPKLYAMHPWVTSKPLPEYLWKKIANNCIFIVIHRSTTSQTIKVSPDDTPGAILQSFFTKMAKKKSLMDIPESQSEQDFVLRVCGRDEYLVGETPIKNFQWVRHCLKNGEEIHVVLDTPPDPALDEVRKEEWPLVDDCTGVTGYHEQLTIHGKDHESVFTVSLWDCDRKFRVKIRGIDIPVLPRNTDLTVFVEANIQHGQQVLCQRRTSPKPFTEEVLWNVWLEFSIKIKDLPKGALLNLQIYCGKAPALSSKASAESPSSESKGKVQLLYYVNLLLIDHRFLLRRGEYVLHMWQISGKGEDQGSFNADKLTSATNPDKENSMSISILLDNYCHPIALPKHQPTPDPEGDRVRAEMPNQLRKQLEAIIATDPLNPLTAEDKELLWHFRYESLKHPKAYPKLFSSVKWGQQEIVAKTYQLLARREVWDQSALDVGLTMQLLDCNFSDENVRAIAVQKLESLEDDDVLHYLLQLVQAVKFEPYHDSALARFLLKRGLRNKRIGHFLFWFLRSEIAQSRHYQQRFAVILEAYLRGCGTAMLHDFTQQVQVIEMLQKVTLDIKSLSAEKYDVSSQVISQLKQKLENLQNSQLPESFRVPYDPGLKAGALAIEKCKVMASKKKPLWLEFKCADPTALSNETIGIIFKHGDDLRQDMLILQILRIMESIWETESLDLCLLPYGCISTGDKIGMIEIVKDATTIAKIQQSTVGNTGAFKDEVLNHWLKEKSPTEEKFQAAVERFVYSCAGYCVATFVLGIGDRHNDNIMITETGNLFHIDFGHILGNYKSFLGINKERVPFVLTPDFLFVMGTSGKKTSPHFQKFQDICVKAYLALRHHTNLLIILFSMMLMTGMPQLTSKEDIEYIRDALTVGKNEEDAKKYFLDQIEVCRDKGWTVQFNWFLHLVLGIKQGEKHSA

IC50 [1]: 0.371 µM | IC50 [2]: 0.05 µM | IC50 [3]: 0.398 µM | IC50 [4]: 0.19 µM | IC50 ([5]; ADP-Glo, 0.1 nM enzyme, 120 min, 50 μM ATP): 0.0013 µM | Selectivity of PI3Kα vs PI3Kβ ([5]; ratio of IC50 PI3Kβ to IC50 PI3Kα): 146 | Selectivity of PI3Kα vs PI3Kγ ([5]; ratio of IC50 PI3Kγ to IC50 PI3Kα): 57 | Selectivity of PI3Kα vs PI3Kδ ([5]; ratio of IC50 PI3Kδ to IC50 PI3Kα): 38 | IC50 [6]: 0.074 µM | IC50 [7]: 0.14 µM
Compound: C[C@H](Nc1ccc2c(c1)OCCn1cc(N3C(=O)OC[C@H]3CC#N)nc1-2)C(N)=O [Example 118, (S)-2-((2-((R)-4-(cyanomethyl)-2-oxooxazolidin-3-yl)-5,6-dihydrobenzo[f]imidazo[1,2-d][1,4]oxazepin-9-yl)amino)propanamide]
